System: IL-2 production
Assay: Inhibition of IL-2 production in PHA-activated Jurkat cells (ELISA)
Format: cell-based
Conditions: Homo sapiens, Jurkat, 20 h, PHA 2.5 μg/mL, IL-2 ELISA
Procedure: Jurkat cells were placed in a 96 well plate (0.5 million cells per well in 1% FBS medium) then a test compound of this invention was added at different concentrations. After 10 minutes, the cells were activated with PHA (final concentration 2.5 μg/mL) and incubated for 20 hours at 37° C. under CO2. The final volume was 200 μL. Following incubation, the cells were centrifuged and the supernatants collected and stored at −70° C. prior to assaying for IL-2 production. A commercial ELISA kit (IL-2 Eli-pair, Diaclone Research, Besancon, France) was used to detect production of IL-2, from which dose response curves were obtained.

Row | SMILES | IC50 [nM]
1 | Cn1cncc1-c1nc(NC(=O)c2c(F)cccc2F)sc1-c1cccc(C(F)(F)F)c1 [Compound 80, 2,6-Difluoro-N-(4-(1-methyl-1H-imidazol-5-yl)-5-(3-(trifluoromethyl)phenyl)thiazol-2-yl)benzamide] | > 1000
2 | Cc1nc(C)c(-c2nc(NC(=O)c3c(F)cccc3F)sc2-c2cccc(C(F)(F)F)c2)o1 [Compound 81, N-(4-(2,4-dimethyloxazol-5-yl)-5-(3-(trifluoromethyl)phenyl)thiazol-2-yl)-2,6-difluorobenzamide] | > 1000
3 | CC(=O)c1nc(NC(=O)c2c(F)cccc2F)sc1-c1cccc(C(F)(F)F)c1 [Compound 84, N-(4-Acetyl-5-(3-(trifluoromethyl)phenyl)thiazol-2-yl)-2,6-difluorobenzamide] | 200 to 500
4 | Cc1nc(-c2nc(NC(=O)c3c(F)cccc3F)sc2-c2cccc(C(F)(F)F)c2)cs1 [Compound 86, 2,6-Difluoro-N-(2′-methyl-5-(3-(trifluoromethyl)phenyl)-4,4′-bithiazol-2-yl)benzamide] | 200 to 500
5 | Cc1noc(-c2nc(NC(=O)c3c(F)cccc3F)sc2-c2cccc(C(F)(F)F)c2)n1 [Compound 92, 2,6-difluoro-N-(4-(3-methyl-1,2,4-oxadiazol-5-yl)-5-(3-(trifluoromethyl)phenyl)thiazol-2-yl)benzamide] | 200 to 500
6 | Cc1nc(-c2nc(NC(=O)c3c(F)cccc3F)sc2-c2cccc(C(F)(F)F)c2)c(C)s1 [Compound 95, N-(2′,5′-dimethyl-5-(3-(trifluoromethyl)phenyl)-4,4′-bithiazol-2-yl)-2,6-difluorobenzamide] | > 1000
7 | NC(=O)c1nc(NC(=O)c2c(F)cccc2F)sc1-c1cccc(C(F)(F)F)c1 [Compound 97, 2-(2,6-Difluorobenzamido)-5-(3-(trifluoromethyl)phenyl)thiazole-4-carboxamide] | > 1000
8 | O=C(Nc1nc(-c2ccon2)c(-c2cccc(C(F)(F)F)c2)s1)c1c(F)cccc1F [Compound 106, 2,6-Difluoro-N-(4-(isoxazol-3-yl)-5-(3-(trifluoromethyl)phenyl)thiazol-2-yl)benzamide] | 100 to 200
9 | COc1ccc(-c2nc(NC(=O)c3c(F)cccc3F)sc2-c2cccc(C(F)(F)F)c2)cc1OC [Compound 109, N-(4-(3,4-Dimethoxyphenyl)-5-(3-(trifluoromethyl)phenyl)thiazol-2-yl)-2,6-difluorobenzamide] | > 1000
10 | CN(C)c1ccc(-c2nc(NC(=O)c3c(F)cccc3F)sc2-c2cccc(C(F)(F)F)c2)cc1 [Compound 110, N-(4-(4-(Dimethylamino)phenyl)-5-(3-(trifluoromethyl)phenyl)thiazol-2-yl)-2,6-difluorobenzamide] | > 1000
11 | COC(=O)c1cccc(-c2sc(NC(=O)c3c(F)cccc3F)nc2C(=O)OC)c1 [Compound 114, Methyl 2-(2,6-difluorobenzamido)-5-(3-(methoxycarbonyl)phenyl)thiazole-4-carboxylate] | > 1000
12 | CCOC(=O)c1nc(-c2sc(NC(=O)c3c(F)cccc3F)nc2C)cs1 [Compound 114a, Ethyl 2′-(2,6-difluorobenzamido)-4′-methyl-4,5′-bithiazole-2-carboxylate] | > 1000
13 | Cc1nc(-c2sc(NC(=O)c3c(F)cccc3F)nc2C)cs1 [Compound 114b, N-(2,4′-Dimethyl-4,5′-bithiazol-2′-yl)-2,6-difluorobenzamide] | > 1000
14 | Cc1nc(C(=O)Nc2c(F)cccc2F)sc1-c1cccc(-c2nnco2)c1 [Compound 118, 5-(3-(1,3,4-oxadiazol-2-yl)phenyl)-N-(2,6-difluorophenyl)-4-methylthiazole-2-carboxamide] | 200 to 500
15 | Cc1cnccc1NC(=O)c1nc(C)c(-c2cccc(C(F)(F)F)c2)s1 [Compound 120, 4-methyl-N-(3-methylpyridin-4-yl)-5-(3-(trifluoromethyl)phenyl)thiazole-2-carboxamide] | > 1000
16 | Cc1ccc(-c2ncco2)cc1-c1ncc(C(=O)Nc2c(F)cccc2F)s1 [Compound 121, N-(2,6-difluorophenyl)-2-(2-methyl-5-(oxazol-2-yl)phenyl)thiazole-5-carboxamide] | 100 to 200
17 | Cc1ccc(-c2nccs2)cc1-c1ncc(C(=O)Nc2c(F)cccc2F)s1 [Compound 122, N-(2,6-difluorophenyl)-2-(2-methyl-5-(thiazol-2-yl)phenyl)thiazole-5-carboxamide] | 30 to 50
18 | O=C(Nc1c(F)cccc1F)c1cnc(-c2cccc(-c3ncco3)c2)s1 [Compound 124, N-(2,6-difluorophenyl)-2-(3-(oxazol-2-yl)phenyl)thiazole-5-carboxamide] | > 1000
19 | O=C(Nc1c(F)cccc1F)c1cnc(-c2cc(-c3nccs3)ccc2Cl)s1 [Compound 125, 2-(2-chloro-5-(thiazol-2-yl)phenyl)-N-(2,6-difluorophenyl)thiazole-5-carboxamide] | 200 to 500
20 | Cc1ccc(-c2nnco2)cc1-c1ncc(C(=O)Nc2c(F)cccc2F)s1 [Compound 128, N-(2,6-difluorophenyl)-2-(2-methyl-5-(1,3,4-oxadiazol-2-yl)phenyl)thiazole-5-carboxamide] | 200 to 500

Results, then the molecule that gave them:

Row | IC50 [nM] | SMILES
21 | > 1000 | O=C(Nc1nc(C(O)c2ccccn2)c(-c2cccc(C(F)(F)F)c2)s1)c1c(F)cccc1F (centres unmarked) [Compound 83, 2,6-difluoro-N-(4-(hydroxy(pyridin-2-yl)methyl)-5-(3-(trifluoromethyl)phenyl)thiazol-2-yl)benzamide]
22 | > 1000 | Nc1nc(-c2nc(NC(=O)c3c(F)cccc3F)sc2-c2cccc(C(F)(F)F)c2)cs1 [Compound 87, N-(2′-amino-5-(3-(trifluoromethyl)phenyl)-4,4′-bithiazol-2-yl)-2,6-difluorobenzamide]
23 | 200 to 500 | O=C(Nc1nc(C2=NCCO2)c(-c2cccc(C(F)(F)F)c2)s1)c1c(F)cccc1F [Compound 89, N-(4-(4,5-dihydrooxazol-2-yl)-5-(3-(trifluoromethyl)phenyl)thiazol-2-yl)-2,6-difluorobenzamide]
24 | 200 to 500 | O=C(Nc1nc(-c2nnco2)c(-c2cccc(C(F)(F)F)c2)s1)c1c(F)cccc1F [Compound 90, N-(4-(1,3,4-oxadiazol-2-yl)-5-(3-(trifluoromethyl)phenyl)thiazol-2-yl)-2,6-difluorobenzamide]
25 | 50 to 100 | O=C(Nc1nc(-c2ncco2)c(-c2cccc(C(F)(F)F)c2)s1)c1c(F)cccc1F [Compound 91, 2,6-difluoro-N-(4-(oxazol-2-yl)-5-(3-(trifluoromethyl)phenyl)thiazol-2-yl)benzamide]
26 | > 1000 | CON(C)C(=O)c1nc(NC(=O)c2c(F)cccc2F)sc1-c1cccc(C(F)(F)F)c1 [Compound 93, 2-(2,6-difluorobenzamido)-N-methoxy-N-methyl-5-(3-(trifluoromethyl)phenyl)thiazole-4-carboxamide]
27 | 50 to 100 | CCC(=O)c1nc(NC(=O)c2c(F)cccc2F)sc1-c1cccc(C(F)(F)F)c1 [Compound 94, 2,6-difluoro-N-(4-propionyl-5-(3-(trifluoromethyl)phenyl)thiazol-2-yl)benzamide]
28 | > 1000 | CCOC(=O)c1nc(-c2nc(NC(=O)c3c(F)cccc3F)sc2-c2cccc(C(F)(F)F)c2)c(C)s1 [Compound 96, Ethyl 2′-(2,6-difluorobenzamido)-5-methyl-5′-(3-(trifluoromethyl)phenyl)-4,4′-bithiazole-2-carboxylate]
29 | > 1000 | CCOC(CNC(=O)c1nc(NC(=O)c2c(F)cccc2F)sc1-c1cccc(C(F)(F)F)c1)OCC [Compound 98, N-(2,2-diethoxyethyl)-2-(2,6-difluorobenzamido)-5-(3-(trifluoromethyl)phenyl)thiazole-4-carboxamide]
30 | 200 to 500 | O=C(Nc1nc(-c2cc[nH]n2)c(-c2cccc(C(F)(F)F)c2)s1)c1c(F)cccc1F [Compound 100, N-(4-(1H-Pyrazol-3-yl)-5-(3-(trifluoromethyl)phenyl)thiazol-2-yl)-2,6-difluorobenzamide]
31 | 200 to 500 | O=C(Nc1nc(Cl)c(-c2cccc(C(F)(F)F)c2)s1)c1c(F)cccc1F [Compound 103, N-(4-Chloro-5-(3-(trifluoromethyl)phenyl)thiazol-2-yl)-2,6-difluorobenzamide]
32 | < 30 | O=C(Nc1nc(-c2ccccn2)c(-c2cccc(C(F)(F)F)c2)s1)c1c(F)cccc1F [Compound 107, 2,6-Difluoro-N-(4-(pyridin-2-yl)-5-(3-(trifluoromethyl)phenyl)thiazol-2-yl)benzamide]
33 | > 1000 | Cc1cnccc1C(=O)Nc1nc(C(=O)O)c(-c2cccc(C(F)(F)F)c2)s1 [Compound 112, 2-(3-Methylisonicotinamido)-5-(3-(trifluoromethyl)phenyl)thiazole-4-carboxylic acid]
34 | 50 to 100 | Cc1nc(C(=O)Nc2c(F)cccc2F)sc1-c1cccc(-c2ncco2)c1 [Compound 116, N-(2,6-difluorophenyl)-4-methyl-5-(3-(oxazol-2-yl)phenyl)thiazole-2-carboxamide]
35 | 100 to 200 | COC(=O)c1cccc(-c2sc(C(=O)Nc3c(F)cccc3F)nc2C)c1 [Compound 117, methyl 3-(2-(2,6-difluorophenylcarbamoyl)-4-methylthiazol-5-yl)benzoate]
36 | 200 to 500 | Cc1nc(C(=O)Nc2c(F)cccc2F)sc1-c1cc(C(F)(F)F)ccc1Cl [Compound 119, 5-(2-chloro-5-(trifluoromethyl)phenyl)-N-(2,6-difluorophenyl)-4-methylthiazole-2-carboxamide]
37 | > 1000 | O=C(Nc1c(F)cccc1F)c1cnc(-c2cccc(C(F)(F)F)c2)s1 [Compound 123, N-(2,6-difluorophenyl)-2-(3-(trifluoromethyl)phenyl)thiazole-5-carboxamide]
38 | > 1000 | COc1ncc(Cl)cc1-c1ncc(C(=O)Nc2c(F)cccc2F)s1 [Compound 126, 2-(5-chloro-2-methoxypyridin-3-yl)-N-(2,6-difluorophenyl)thiazole-5-carboxamide]
